# Experimental data as given in PubChem BioAssay (NCI).
#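 Protocol summary: plate cells (96-well), add compound at 5 concentrations, incubate 48 h, interpolate endpoints linearly. TGI: total growth inhibition.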
# Columns and labels:
# Experiment in all cases: DTP human tumour cell line panel, 48 h
# 786-0 renal = test system: 786-0 renal
# A549 NSCLC = test system: A549 NSCLC
# ACHN renal = test system: ACHN renal
# BT-549 breast = test system: BT-549 breast
# CAKI-1 renal = test system: CAKI-1 renal
# CCRF-CEM leukemia = test system: CCRF-CEM leukemia
# COLO 205 colon = test system: COLO 205 colon
# DU-145 prostate = test system: DU-145 prostate
# EKVX NSCLC = test system: EKVX NSCLC
# HCC-2998 colon = test system: HCC-2998 colon
# HCT-116 colon = test system: HCT-116 colon
# HCT-15 colon = test system: HCT-15 colon
# HL-60(TB) leukemia = test system: HL-60(TB) leukemia
# HOP-62 NSCLC = test system: HOP-62 NSCLC
# HT29 colon = test system: HT29 colon
# IGROV1 ovarian = test system: IGROV1 ovarian
# K-562 leukemia = test system: K-562 leukemia
# KM12 colon = test system: KM12 colon
# LOX IMVI melanoma = test system: LOX IMVI melanoma
# M14 melanoma = test system: M14 melanoma
# MALME-3M melanoma = test system: MALME-3M melanoma
# MCF7 breast = test system: MCF7 breast
# MDA-MB-435 = test system: MDA-MB-435
# MDA-N = test system: MDA-N
# MOLT-4 leukemia = test system: MOLT-4 leukemia
# NCI-H226 lung = test system: NCI-H226 lung
# NCI-H23 lung = test system: NCI-H23 lung
# NCI-H522 lung = test system: NCI-H522 lung
# NCI/ADR-RES ovarian = test system: NCI/ADR-RES ovarian
# OVCAR-3 ovarian = test system: OVCAR-3 ovarian
# OVCAR-5 ovarian = test system: OVCAR-5 ovarian
# OVCAR-8 ovarian = test system: OVCAR-8 ovarian
# PC-3 prostate = test system: PC-3 prostate
# RPMI-8226 leukemia = test system: RPMI-8226 leukemia
# RXF 393 renal = test system: RXF 393 renal
# SF-268 CNS = test system: SF-268 CNS
# SF-295 CNS = test system: SF-295 CNS
# SF-539 CNS = test system: SF-539 CNS
# SK-MEL-28 melanoma = test system: SK-MEL-28 melanoma
# SK-MEL-5 melanoma = test system: SK-MEL-5 melanoma
# SK-OV-3 ovarian = test system: SK-OV-3 ovarian
# SN12C renal = test system: SN12C renal
# SNB-19 CNS = test system: SNB-19 CNS
# SNB-75 CNS = test system: SNB-75 CNS
# SR leukemia = test system: SR leukemia
# SW-620 colon = test system: SW-620 colon
# T-47D breast = test system: T-47D breast
# TK-10 renal = test system: TK-10 renal
# UACC-257 melanoma = test system: UACC-257 melanoma
# UACC-62 melanoma = test system: UACC-62 melanoma
# UO-31 renal = test system: UO-31 renal
# A498 renal = test system: A498 renal
# HOP-92 NSCLC = test system: HOP-92 NSCLC
# HS 578T breast = test system: HS 578T breast
# MDA-MB-231 breast = test system: MDA-MB-231 breast
# NCI-H460 lung = test system: NCI-H460 lung
# OVCAR-4 ovarian = test system: OVCAR-4 ovarian
# SK-MEL-2 melanoma = test system: SK-MEL-2 melanoma
# U251 CNS = test system: U251 CNS
compound,measurement,setting,value
CN1CN(c2ccccc2)C2(CCN(Cc3csc4ccccc34)CC2)C1=O,TGI,786-0 renal,> 100 µM
same,TGI,A549 NSCLC,74 µM
same,TGI,ACHN renal,92.4 µM
same,TGI,BT-549 breast,20.5 µM
same,TGI,CAKI-1 renal,> 100 µM
same,TGI,CCRF-CEM leukemia,> 100 µM
same,TGI,COLO 205 colon,30.2 µM
same,TGI,DU-145 prostate,> 100 µM
same,TGI,EKVX NSCLC,41.8 µM
same,TGI,HCC-2998 colon,42.5 µM
same,TGI,HCT-116 colon,19.2 µM
same,TGI,HCT-15 colon,> 100 µM
same,TGI,HL-60(TB) leukemia,32.8 µM
same,TGI,HOP-62 NSCLC,87.5 µM
same,TGI,HT29 colon,36.5 µM
same,TGI,IGROV1 ovarian,44.7 µM
same,TGI,K-562 leukemia,> 100 µM
same,TGI,KM12 colon,26.8 µM
same,TGI,LOX IMVI melanoma,25.2 µM
same,TGI,M14 melanoma,39.8 µM
same,TGI,MALME-3M melanoma,45.5 µM
same,TGI,MCF7 breast,37.3 µM
same,TGI,MDA-MB-435,28.7 µM
same,TGI,MDA-N,32.2 µM
same,TGI,MOLT-4 leukemia,29.6 µM
same,TGI,NCI-H226 lung,> 100 µM
same,TGI,NCI-H23 lung,80.4 µM
same,TGI,NCI-H522 lung,35.7 µM
same,TGI,NCI/ADR-RES ovarian,61.1 µM
same,TGI,OVCAR-3 ovarian,27.4 µM
same,TGI,OVCAR-5 ovarian,25.1 µM
same,TGI,OVCAR-8 ovarian,72.6 µM
same,TGI,PC-3 prostate,43 µM
same,TGI,RPMI-8226 leukemia,7.5 µM
same,TGI,RXF 393 renal,35.2 µM
same,TGI,SF-268 CNS,> 100 µM
same,TGI,SF-295 CNS,26.6 µM
same,TGI,SF-539 CNS,48.3 µM
same,TGI,SK-MEL-28 melanoma,68.7 µM
same,TGI,SK-MEL-5 melanoma,22.4 µM
same,TGI,SK-OV-3 ovarian,> 100 µM
same,TGI,SN12C renal,30.6 µM
same,TGI,SNB-19 CNS,> 100 µM
same,TGI,SNB-75 CNS,> 100 µM
same,TGI,SR leukemia,23.2 µM
same,TGI,SW-620 colon,> 100 µM
same,TGI,T-47D breast,71 µM
same,TGI,TK-10 renal,41.2 µM
same,TGI,UACC-257 melanoma,31.9 µM
same,TGI,UACC-62 melanoma,> 100 µM
same,TGI,UO-31 renal,12.3 µM
CCc1cccc(C(C)(C)C)c1NC(=S)N/C=C(/C#N)C(N)=O,TGI,786-0 renal,> 100 µM
same,TGI,A498 renal,> 100 µM
same,TGI,A549 NSCLC,> 100 µM
same,TGI,ACHN renal,> 100 µM
same,TGI,BT-549 breast,> 100 µM
same,TGI,CAKI-1 renal,> 100 µM
same,TGI,CCRF-CEM leukemia,> 100 µM
same,TGI,COLO 205 colon,> 100 µM
same,TGI,DU-145 prostate,> 100 µM
same,TGI,EKVX NSCLC,> 100 µM
same,TGI,HCC-2998 colon,> 100 µM
same,TGI,HCT-116 colon,> 100 µM
same,TGI,HCT-15 colon,> 100 µM
same,TGI,HL-60(TB) leukemia,> 100 µM
same,TGI,HOP-62 NSCLC,> 100 µM
same,TGI,HOP-92 NSCLC,72 µM
same,TGI,HS 578T breast,> 100 µM
same,TGI,HT29 colon,> 100 µM
same,TGI,IGROV1 ovarian,> 100 µM
same,TGI,K-562 leukemia,> 100 µM
same,TGI,KM12 colon,> 100 µM
same,TGI,LOX IMVI melanoma,> 100 µM
same,TGI,M14 melanoma,> 100 µM
same,TGI,MALME-3M melanoma,> 100 µM
same,TGI,MCF7 breast,> 100 µM
same,TGI,MDA-MB-231 breast,> 100 µM
same,TGI,MDA-MB-435,> 100 µM
same,TGI,MDA-N,> 100 µM
same,TGI,MOLT-4 leukemia,> 100 µM
same,TGI,NCI-H226 lung,> 100 µM
same,TGI,NCI-H23 lung,> 100 µM
same,TGI,NCI-H460 lung,> 100 µM
same,TGI,NCI-H522 lung,> 100 µM
same,TGI,NCI/ADR-RES ovarian,> 100 µM
same,TGI,OVCAR-3 ovarian,> 100 µM
same,TGI,OVCAR-4 ovarian,> 100 µM
same,TGI,OVCAR-5 ovarian,> 100 µM
same,TGI,OVCAR-8 ovarian,> 100 µM
same,TGI,PC-3 prostate,> 100 µM
same,TGI,RPMI-8226 leukemia,> 100 µM
same,TGI,RXF 393 renal,> 100 µM
same,TGI,SF-268 CNS,> 100 µM
same,TGI,SF-295 CNS,> 100 µM
same,TGI,SF-539 CNS,> 100 µM
same,TGI,SK-MEL-2 melanoma,> 100 µM
same,TGI,SK-MEL-28 melanoma,> 100 µM
same,TGI,SK-MEL-5 melanoma,> 100 µM
same,TGI,SK-OV-3 ovarian,> 100 µM
same,TGI,SN12C renal,> 100 µM
same,TGI,SNB-19 CNS,> 100 µM
same,TGI,SNB-75 CNS,> 100 µM
same,TGI,SW-620 colon,> 100 µM
same,TGI,T-47D breast,> 100 µM
same,TGI,U251 CNS,> 100 µM
same,TGI,UACC-257 melanoma,> 100 µM
same,TGI,UACC-62 melanoma,> 100 µM
same,TGI,UO-31 renal,> 100 µM
